Here are results for three compounds from publication PMC6264176, “Cholesterol-Lowering Activity of the Major Polyphenols in Grape Seed” (Molecules, 2011).

Where only a bound is given, the exact number is not on record here.

Usually IC50 stands for the point on the concentration scale where inhibition reaches its midpoint. A high value points to weaker potency.

The target in the experiment is T1, pancreatic cholesterol esterase (Sus scrofa, UniProt A0A286ZKB1).
T1 construct: gene CEL
T1 sequence (A0A286ZKB1 96-682): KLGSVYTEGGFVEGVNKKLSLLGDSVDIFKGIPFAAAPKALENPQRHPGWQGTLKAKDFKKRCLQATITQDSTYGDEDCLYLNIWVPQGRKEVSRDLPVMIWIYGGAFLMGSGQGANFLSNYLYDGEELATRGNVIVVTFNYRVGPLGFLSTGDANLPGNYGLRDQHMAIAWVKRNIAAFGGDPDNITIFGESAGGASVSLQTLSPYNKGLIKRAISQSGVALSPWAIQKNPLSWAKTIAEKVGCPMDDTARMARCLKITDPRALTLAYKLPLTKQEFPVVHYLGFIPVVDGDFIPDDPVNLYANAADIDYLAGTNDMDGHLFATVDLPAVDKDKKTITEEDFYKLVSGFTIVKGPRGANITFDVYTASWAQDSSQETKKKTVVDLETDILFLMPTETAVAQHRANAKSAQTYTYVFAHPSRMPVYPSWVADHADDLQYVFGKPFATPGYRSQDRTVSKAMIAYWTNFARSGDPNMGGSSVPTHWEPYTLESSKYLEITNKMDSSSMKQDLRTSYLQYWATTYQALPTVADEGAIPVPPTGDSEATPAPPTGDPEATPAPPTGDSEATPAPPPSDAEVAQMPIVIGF
Briefly: p-NPB hydrolysis by porcine pancreatic cholesterol esterase, absorbance at […] nm, with taurocholic acid. It is filed as biochemical.
As for `Oc1cc(O)c2c(c1)OC(c1ccc(O)c(O)c1)C(O)C2` (single isomer, unassigned; (+)) [(+)-Catechin], the IC50 was over 345 µM.

`Oc1cc(O)c2c(c1)O[C@H](c1ccc(O)c(O)c1)[C@H](O)C2` [(–)-epicatechin]: the IC50 was over 345 µM.

For the compound `O=C(O)c1cc(O)c(O)c(O)c1` [gallic acid], the IC50 was over 588 µM.
